Test results as given in BindingDB's records for doi:10.1021/jm0604777 (University of Bristol, 2006).

Key:
[1] = target: Delta-type opioid receptor (Homo sapiens, UniProt P41143); test: Displacement of [3H]Cl-DPDPE from human recombinant DOR expressed in CHO cells
[2] = Binding affinity to DOR in guinea pig brain membrane

Delta-type opioid receptor, sequence (P41143 whole entry): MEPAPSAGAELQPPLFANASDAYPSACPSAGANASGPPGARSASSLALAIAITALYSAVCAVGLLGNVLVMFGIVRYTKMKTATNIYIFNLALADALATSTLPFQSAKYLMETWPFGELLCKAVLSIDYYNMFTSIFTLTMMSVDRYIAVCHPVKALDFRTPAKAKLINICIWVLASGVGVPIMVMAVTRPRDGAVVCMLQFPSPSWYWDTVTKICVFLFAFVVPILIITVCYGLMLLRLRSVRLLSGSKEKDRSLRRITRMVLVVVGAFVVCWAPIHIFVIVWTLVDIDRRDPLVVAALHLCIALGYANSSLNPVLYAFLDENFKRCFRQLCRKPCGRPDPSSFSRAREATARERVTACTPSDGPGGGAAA

SMILES	Ki [1] [nM]	Ki [2] [nM]
Cc1ccc(CCC(=O)N[C@@]23CCC(=O)[C@@H]4Oc5c(O)ccc6c5[C@@]42CCN(C)C3C6)cc1 [N-[(1R,13R,17S)-10-hydroxy-4-methyl-14-oxo-12-oxa-4-azapentacyclo[9.6.1.0^{1,13}.0^{5,17}.0^{7,18}]octadeca-7(18),8,10-trien-17-yl]-3-(4-methylphenyl)propanamide]	1.3	–
COc1ccc2c3c1O[C@H]1C(=O)CC[C@@]4(NC(=O)/C=C/c5ccccc5Cl)C(C2)N(CC2CC2)CC[C@]314 [N-cyclopropylmethyl-14beta-(2'-chlorocinnamoylamino)-7,8-dihydronorcodeinone]	–	7.2
COc1ccc2c3c1O[C@H]1C(=O)CC[C@@]4(NC(=O)/C=C/c5ccccc5C)C(C2)N(CC2CC2)CC[C@]314 [N-cyclopropylmethyl-14beta-(2'-methylcinnamoylamino)-7,8-dihydronorcodeinone]	–	2.3
Cc1ccccc1/C=C/C(=O)N[C@@]12CCC(=O)[C@@H]3Oc4c(O)ccc5c4[C@@]31CCN(CC1CC1)C2C5 [N-cyclopropylmethyl-14beta-(2'-methylcinnamoylamino)-7,8-dihydronormorphinone]	1.3	–
